As a reminder, the GI50 is the concentration that inhibits growth by half. Read a high GI50 as less potent growth inhibition.

Data on two molecules can be found in US7439265B2, “Irciniastatins a and b” (Arizona Board of Regents, a body corporate of the State of …, priority 2003, dated 2008).

The subject of assay [1] is SF268 CNS cancer cell line. Briefly: Sulforhodamine B cancer cell growth inhibition, SF268. To be noted: 48 hours. Type of assay: cell-based, human. How it is done: (§1) Inhibition of human cancer cell growth was assessed using the National Cancer Institute's standard sulforhodamine B assay as previously described. Briefly, cells in a 5% fetal bovine serum/RPMI1640 medium solution were inoculated in 96-well plates and incubated for 24 hours Serial dilutions of the compounds were then added. After 48 hours, the plates were fixed with trichloroacetic acid, stained with sulforhodamine B and read with an automated microplate reader. A growth inhibition of 50% (GI50 of the drug concentration causing a 50% reduction in the net protein increase) was calculated from optical density data with Immunosoft software. Inhibition of the mouse leukemia P388 cells was assessed in a 10% horse serum/Fisher medium solution for 24 hours, followed by a 48 hour incubation with serial dilutions of the compounds. Cell growth inhibition (ED50) was then calculated using a Z1 Beckman/Coulter particle counter. (Monks, A., et al., Feasibility of high-flux anticancer screen using a diverse panel of cultured human tumor cell lines, J Natl. Cancer Inst. 1991, 83, 757-766.)

The test system of assay [2] is DU-145 prostate cancer cell line. Briefly: Sulforhodamine B cancer cell growth inhibition, DU-145. Type of assay: cell-based, human. To be noted: 48 hours. How it is done: as §1
The test system of assay [3] is Neisseria gonorrhoeae ATCC 49226. The experiment in a line: Broth microdilution antibacterial susceptibility. Type of assay: cell-based. How it is done:
(§2) Ircinastatin A (1) was evaluated against the bacteria Stenotrophomonas maltophilia ATCC 13637, Micrococcus luteus Presque Isle 456, Staphylococcus aureus ATCC 29213, Escherichia coli ATCC 25922, Enterobacter cloacae ATCC 13047, Enterococcus faecalis ATCC 29212, Streptococcus pneumoniae ATCC 6303 and Neisseria gonorrhoeae ATCC 49226, and the fungi Candida albicans ATCC 90028 and Cryptococcus neoformans ATCC 90112, following established broth microdilution susceptibility assays. The minimum inhibitory concentration was defined as the lowest concentration of irciniastatin A that inhibited all visible growth of the test organism (optically clear). Assays were repeated on separate days. (National Committee for Clinical Laboratory Standards. Methods for Dilution Antimicrobial Susceptibility Tests for Bacteria that Grow Aerobically. Approved Standard M7-A5. Wayne, Pa.: NCCLS, 2000; National Committee for Clinical Laboratory Standards. Reference Method for Broth Dilution Antifungal Susceptibility Testing of Yeasts. Approved Standard M27-A. Wayne, Pa.: NCCLS, 1997.)

Assay [4] concerns MCF-7 breast cancer cell line. Briefly: Sulforhodamine B cancer cell growth inhibition, MCF-7. Type of assay: cell-based, human. Particulars: 48 hours. How it is done:
as §1

For assay [5], the system named is KM20L2 colon cancer cell line. The experiment in a line: Sulforhodamine B cancer cell growth inhibition, KM20L2. Type of assay: cell-based, human. Particulars: 48 hours. On the procedure:
as §1

Assay [6] has as its system Cryptococcus neoformans ATCC 90112. Briefly: Broth microdilution antifungal susceptibility. Type of assay: cell-based. On the procedure: as §2
On the technique in general: In broth dilution the organism is exposed to a series of concentrations in liquid medium.

Assay [7] relates to NCI-H460 lung cancer cell line. The experiment in a line: Sulforhodamine B cancer cell growth inhibition, NCI-H460. Type of assay: cell-based, human. To be noted: for GI50: NCI-H460 lung, 48 hours. On the procedure:
as §1

Assay [8] relates to HUVEC (human umbilical vascular endothelial cells). Briefly: Growth inhibition of normal endothelial cells (HUVEC). Type of assay: cell-based.
The subject of assay [9] is BXPC-3 pancreas cancer cell line. Briefly: Sulforhodamine B cancer cell growth inhibition, BXPC-3. Type of assay: cell-based, human. To be noted: 48 hours. How it is done:
as §1

Assay [10] concerns P388 lymphocytic leukemia cells. Briefly: Inhibition of mouse leukemia P388 cell growth. Type of assay: cell-based. To be noted: P388 murine leukemia, in Table 2. How it is done:
as §1

The test system of assay [11] is murine P388 leukemia cell line and six human cancer cell lines. Briefly: Cancer cell growth inhibition, P388 plus minipanel of human cancer cell lines (summary). Type of assay: cell-based. Particulars: against P388, BXPC-3, MCF-7 and SF268. How it is done:
as §1

In brackets after ≈: the same amount, converted by molar mass.

For `C=C(C)CC(OC)[C@H](O)C(=O)N[C@@H](OC)[C@@H]1C[C@@H](O)C(C)(C)[C@@H](C[C@H](O)[C@@H](C)[C@H]2Cc3c(C)c(O)cc(O)c3C(=O)O2)O1` (stereo partly shown) [Irciniastatin A, irciniastatin A], the GI50 in [1] is 3.4 ng/mL (≈ 5.58 nM); in assay [2], 2.4 ng/mL (≈ 3.94 nM); in assay [4] it was 3.2 ng/mL (≈ 5.25 nM); in assay [5] it was 2.7 ng/mL (≈ 4.43 nM); in assay [7], less than 0.1 ng/mL; in assay [8], less than 0.5 ng/mL. The GI50 in assay [9] worked out at 3.8 ng/mL (≈ 6.23 nM); in assay [10], 4.13 ng/mL (≈ 6.77 nM). The minimum inhibitory concentration in assay [3] came to 64000 ng/mL (≈ 105000 nM); in assay [6], 16000 ng/mL (≈ 26200 nM). The “activity of irciniastatin A relative to irciniastatin B” value in [7] (NCI-H460 lung cancer cells) is listed as “at least 10 times”.
Take `C=C(C)C[C@H](OC)[C@H](O)C(=O)N[C@@H](OC)[C@@H]1CC(=O)C(C)(C)[C@@H](C[C@H](O)[C@@H](C)[C@H]2Cc3c(C)c(O)cc(O)c3C(=O)O2)O1` [Irciniastatin B, irciniastatin B]: the GI50 in assay [1] came out at 0.66 ng/mL (≈ 1.09 nM); in assay [2] it was 1.6 ng/mL (≈ 2.63 nM); in [4], 0.5 ng/mL (≈ 0.823 nM); in assay [5], 2.1 ng/mL (≈ 3.46 nM); in [7] it was 1.2 ng/mL (≈ 1.97 nM); in [9], 0.73 ng/mL (≈ 1.2 nM). The molecule also displayed a GI50 in assay [10] of 6 ng/mL (≈ 9.87 nM). The “cell growth inhibition of irciniastatin B (2) relative to irciniastatin A (1)” value in assay [11] is recorded as “ten times stronger”.
